The record followed here is article PMC8366453, “Efficacy of RyR2 inhibitor EL20 in induced pluripotent stem cell‐derived cardiomyocytes from a patient with catecholaminergic polymorphic ventricular tachycardia” (Journal of Cellular and Molecular Medicine, 2021).

Broadly, the IC50 is the concentration that inhibits the measured activity by half.

In the test the target is cardiac ryanodine receptor type‐2 (RyR2) (Homo sapiens, UniProt Q92736, R176Q). Nature of the test: Confocal Ca2+ spark frequency dose-response in paced CPVT patient iPSC-derived cardiomyocytes (heterozygous R176Q). The test is classed as cell-based.
Chain of cardiac ryanodine receptor type‐2 (RyR2) (Q92736 whole entry R176Q): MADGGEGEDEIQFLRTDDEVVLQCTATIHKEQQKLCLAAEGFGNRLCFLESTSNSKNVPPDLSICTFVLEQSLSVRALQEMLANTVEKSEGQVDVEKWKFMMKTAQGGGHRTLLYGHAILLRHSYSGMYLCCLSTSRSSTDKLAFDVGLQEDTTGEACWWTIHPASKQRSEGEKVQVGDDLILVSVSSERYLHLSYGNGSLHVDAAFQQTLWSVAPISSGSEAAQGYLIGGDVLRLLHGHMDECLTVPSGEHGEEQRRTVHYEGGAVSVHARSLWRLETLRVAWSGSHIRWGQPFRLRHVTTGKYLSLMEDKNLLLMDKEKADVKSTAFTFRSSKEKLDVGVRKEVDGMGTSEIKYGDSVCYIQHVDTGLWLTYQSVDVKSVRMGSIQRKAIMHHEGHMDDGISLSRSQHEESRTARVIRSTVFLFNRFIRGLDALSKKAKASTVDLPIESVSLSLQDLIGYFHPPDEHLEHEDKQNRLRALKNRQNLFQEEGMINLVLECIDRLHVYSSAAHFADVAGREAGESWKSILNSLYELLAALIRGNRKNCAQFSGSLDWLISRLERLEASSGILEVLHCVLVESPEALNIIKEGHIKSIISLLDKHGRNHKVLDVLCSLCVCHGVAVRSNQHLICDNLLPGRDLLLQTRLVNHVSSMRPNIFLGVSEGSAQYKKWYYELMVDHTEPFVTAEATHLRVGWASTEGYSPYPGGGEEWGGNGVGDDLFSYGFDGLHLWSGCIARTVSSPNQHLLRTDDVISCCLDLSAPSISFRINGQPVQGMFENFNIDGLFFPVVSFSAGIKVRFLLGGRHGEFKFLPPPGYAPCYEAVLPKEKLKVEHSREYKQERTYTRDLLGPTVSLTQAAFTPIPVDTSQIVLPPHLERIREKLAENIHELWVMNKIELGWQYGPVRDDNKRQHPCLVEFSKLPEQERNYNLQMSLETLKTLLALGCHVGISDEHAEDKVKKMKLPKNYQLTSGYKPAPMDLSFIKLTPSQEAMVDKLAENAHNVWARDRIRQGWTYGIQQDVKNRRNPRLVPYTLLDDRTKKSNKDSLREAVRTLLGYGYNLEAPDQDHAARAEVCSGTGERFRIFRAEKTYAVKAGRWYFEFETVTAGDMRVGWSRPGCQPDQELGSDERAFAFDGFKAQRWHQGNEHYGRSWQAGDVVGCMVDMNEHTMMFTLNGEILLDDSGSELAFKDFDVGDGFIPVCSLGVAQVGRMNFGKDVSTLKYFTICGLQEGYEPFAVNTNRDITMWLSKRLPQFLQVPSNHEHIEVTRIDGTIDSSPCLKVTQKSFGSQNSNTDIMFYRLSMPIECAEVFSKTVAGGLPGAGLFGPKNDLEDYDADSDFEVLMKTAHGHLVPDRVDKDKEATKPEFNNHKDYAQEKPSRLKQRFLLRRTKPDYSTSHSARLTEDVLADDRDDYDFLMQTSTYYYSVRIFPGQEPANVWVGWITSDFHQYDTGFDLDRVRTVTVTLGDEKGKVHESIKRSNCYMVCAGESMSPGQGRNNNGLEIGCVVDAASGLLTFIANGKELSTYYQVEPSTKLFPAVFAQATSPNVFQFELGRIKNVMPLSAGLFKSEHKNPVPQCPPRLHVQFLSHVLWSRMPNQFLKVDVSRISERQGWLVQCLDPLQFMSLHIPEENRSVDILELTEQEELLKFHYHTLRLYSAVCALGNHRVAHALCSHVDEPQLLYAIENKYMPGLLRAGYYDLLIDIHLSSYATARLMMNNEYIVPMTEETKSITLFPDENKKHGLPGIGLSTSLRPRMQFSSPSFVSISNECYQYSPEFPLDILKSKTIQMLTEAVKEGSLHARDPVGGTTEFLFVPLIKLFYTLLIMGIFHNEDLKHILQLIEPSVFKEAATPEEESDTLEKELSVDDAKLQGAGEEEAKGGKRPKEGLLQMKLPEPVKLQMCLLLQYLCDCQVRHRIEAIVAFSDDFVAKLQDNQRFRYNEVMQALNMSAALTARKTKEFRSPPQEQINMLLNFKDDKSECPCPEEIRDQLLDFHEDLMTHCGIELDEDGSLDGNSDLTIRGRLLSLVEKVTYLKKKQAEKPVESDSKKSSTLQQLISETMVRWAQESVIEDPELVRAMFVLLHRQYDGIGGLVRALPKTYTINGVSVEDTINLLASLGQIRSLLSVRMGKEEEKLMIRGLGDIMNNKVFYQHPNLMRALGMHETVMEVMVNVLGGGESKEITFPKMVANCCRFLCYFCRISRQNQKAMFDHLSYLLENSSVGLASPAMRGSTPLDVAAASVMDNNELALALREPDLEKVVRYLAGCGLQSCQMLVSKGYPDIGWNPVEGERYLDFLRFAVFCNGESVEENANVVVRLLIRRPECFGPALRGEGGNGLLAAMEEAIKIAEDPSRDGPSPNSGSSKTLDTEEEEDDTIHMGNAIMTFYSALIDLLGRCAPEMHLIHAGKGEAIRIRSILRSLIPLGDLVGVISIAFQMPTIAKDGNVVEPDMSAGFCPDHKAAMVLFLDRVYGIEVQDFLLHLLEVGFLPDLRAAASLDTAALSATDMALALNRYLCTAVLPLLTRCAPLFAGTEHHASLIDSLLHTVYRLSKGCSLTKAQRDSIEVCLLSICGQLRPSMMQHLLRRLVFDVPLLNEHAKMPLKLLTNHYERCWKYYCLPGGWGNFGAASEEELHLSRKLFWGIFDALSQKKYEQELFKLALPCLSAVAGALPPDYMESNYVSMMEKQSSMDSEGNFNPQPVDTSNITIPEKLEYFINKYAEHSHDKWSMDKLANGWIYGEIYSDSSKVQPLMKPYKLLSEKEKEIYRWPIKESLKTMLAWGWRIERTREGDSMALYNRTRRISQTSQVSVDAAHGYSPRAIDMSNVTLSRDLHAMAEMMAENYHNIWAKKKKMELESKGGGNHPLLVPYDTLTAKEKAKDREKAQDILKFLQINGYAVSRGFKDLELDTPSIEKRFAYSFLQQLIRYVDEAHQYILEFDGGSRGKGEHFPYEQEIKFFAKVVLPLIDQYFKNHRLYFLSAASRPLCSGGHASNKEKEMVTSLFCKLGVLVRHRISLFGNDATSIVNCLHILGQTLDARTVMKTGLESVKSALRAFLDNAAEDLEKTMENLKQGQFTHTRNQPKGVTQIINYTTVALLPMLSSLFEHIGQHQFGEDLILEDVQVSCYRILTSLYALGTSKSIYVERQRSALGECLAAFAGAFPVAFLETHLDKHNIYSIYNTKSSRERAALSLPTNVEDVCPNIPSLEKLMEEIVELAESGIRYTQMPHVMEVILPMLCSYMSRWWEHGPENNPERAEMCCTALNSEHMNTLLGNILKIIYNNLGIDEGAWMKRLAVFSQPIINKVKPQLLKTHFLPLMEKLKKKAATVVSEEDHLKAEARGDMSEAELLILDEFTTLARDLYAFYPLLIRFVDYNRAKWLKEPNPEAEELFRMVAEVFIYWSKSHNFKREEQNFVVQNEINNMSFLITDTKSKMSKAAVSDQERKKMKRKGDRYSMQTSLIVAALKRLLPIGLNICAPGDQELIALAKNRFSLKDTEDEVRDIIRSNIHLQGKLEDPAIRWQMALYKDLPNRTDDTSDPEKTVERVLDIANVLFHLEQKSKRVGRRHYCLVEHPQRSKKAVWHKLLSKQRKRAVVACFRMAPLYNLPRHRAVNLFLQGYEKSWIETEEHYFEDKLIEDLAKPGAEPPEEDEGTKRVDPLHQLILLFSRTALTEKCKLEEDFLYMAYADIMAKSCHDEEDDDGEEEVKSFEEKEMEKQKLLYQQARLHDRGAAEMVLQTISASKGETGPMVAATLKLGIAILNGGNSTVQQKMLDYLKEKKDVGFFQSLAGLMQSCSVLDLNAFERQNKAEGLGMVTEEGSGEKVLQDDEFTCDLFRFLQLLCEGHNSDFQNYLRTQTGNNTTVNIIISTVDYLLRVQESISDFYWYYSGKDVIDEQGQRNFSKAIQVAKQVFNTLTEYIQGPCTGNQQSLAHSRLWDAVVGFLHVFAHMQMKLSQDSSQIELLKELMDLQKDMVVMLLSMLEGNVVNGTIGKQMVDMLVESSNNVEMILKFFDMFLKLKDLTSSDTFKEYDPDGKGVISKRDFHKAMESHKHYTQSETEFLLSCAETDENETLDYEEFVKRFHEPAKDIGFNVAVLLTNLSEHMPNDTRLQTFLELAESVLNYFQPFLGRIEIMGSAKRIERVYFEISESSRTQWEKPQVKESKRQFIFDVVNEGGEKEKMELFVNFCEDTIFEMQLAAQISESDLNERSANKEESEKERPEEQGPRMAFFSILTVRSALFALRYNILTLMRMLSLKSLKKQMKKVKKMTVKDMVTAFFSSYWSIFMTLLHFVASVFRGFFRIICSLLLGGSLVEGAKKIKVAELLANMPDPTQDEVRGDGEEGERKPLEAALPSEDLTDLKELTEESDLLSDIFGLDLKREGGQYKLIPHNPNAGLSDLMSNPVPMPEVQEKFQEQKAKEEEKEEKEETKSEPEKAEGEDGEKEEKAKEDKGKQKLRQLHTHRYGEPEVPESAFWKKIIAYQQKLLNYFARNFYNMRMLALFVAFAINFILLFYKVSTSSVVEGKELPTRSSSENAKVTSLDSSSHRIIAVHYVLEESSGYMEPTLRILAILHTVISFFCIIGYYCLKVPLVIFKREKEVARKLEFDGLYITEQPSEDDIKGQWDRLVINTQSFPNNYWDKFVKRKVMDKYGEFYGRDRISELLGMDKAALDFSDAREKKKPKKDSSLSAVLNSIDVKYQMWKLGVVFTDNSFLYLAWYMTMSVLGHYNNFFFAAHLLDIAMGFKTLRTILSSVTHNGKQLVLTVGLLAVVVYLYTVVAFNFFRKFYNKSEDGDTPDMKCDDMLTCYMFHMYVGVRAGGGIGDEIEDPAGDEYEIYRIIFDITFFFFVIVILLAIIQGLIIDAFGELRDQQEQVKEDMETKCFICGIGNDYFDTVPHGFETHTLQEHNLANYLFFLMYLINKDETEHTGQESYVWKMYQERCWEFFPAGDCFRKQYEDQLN

For the compound `CCCCNc1ccc(C(=O)OCCN(CC)CC)c(OC)c1` [EL20], the IC50 amounted to 82 nM.
